# Measured values from PMC4172587 (2014).
# Tests used:
# [1] = test system: poly(dA-dT).poly(dA-dT) (DNA, polymer) AT; test: UV melting, 260 nm; conditions: Na+ (citrate-phosphate 15 mM); 15 mM CP buffer pH 6.8; 20 µM polymer; harmalol at saturation (rmax); per base
# [2] = test system: poly(dA).poly(dT) (DNA, polymer) A/T; test: UV melting, 260 nm; conditions: Na+ (citrate-phosphate 15 mM); 15 mM CP buffer pH 6.8; 20 µM polymer; harmalol at saturation (rmax); per base
# [3] = test system: poly(dG).poly(dC) (DNA, polymer) G/C; test: UV melting, 260 nm; conditions: Na+ (citrate-phosphate 15 mM); 15 mM CP buffer pH 6.8; 20 µM polymer; harmalol at saturation (rmax); per base
# [4] = test system: poly(dG-dC).poly(dG-dC) (DNA, polymer) GC; test: competition dialysis; conditions: Na+ (citrate-phosphate 15 mM); apparent; 15 mM CP buffer pH 6.8, 25 °C; 150 µM nucleotide phosphate, 1 µM harmalol; per base
# [5] = test system: poly(dA-dT).poly(dA-dT) (DNA, polymer) AT; test: competition dialysis; conditions: Na+ (citrate-phosphate 15 mM); apparent; 15 mM CP buffer pH 6.8, 25 °C; 150 µM nucleotide phosphate, 1 µM harmalol; per base
# [6] = test system: poly(dA).poly(dT) (DNA, polymer) A/T; test: competition dialysis; conditions: Na+ (citrate-phosphate 15 mM); apparent; 15 mM CP buffer pH 6.8, 25 °C; 150 µM nucleotide phosphate, 1 µM harmalol; per base
# [7] = test system: poly(dG).poly(dC) (DNA, polymer) G/C; test: competition dialysis; conditions: Na+ (citrate-phosphate 15 mM); apparent; 15 mM CP buffer pH 6.8, 25 °C; 150 µM nucleotide phosphate, 1 µM harmalol; per base
# [8] = test system: poly(dG-dC).poly(dG-dC) (DNA, polymer) GC; test: ITC, polynucleotide titrated into harmalol; conditions: 15 mM Na+; CP buffer pH 6.8, 25 °C; single-site fit; 20 µM harmalol; per base
# [9] = test system: poly(dA-dT).poly(dA-dT) (DNA, polymer) AT; test: ITC, polynucleotide titrated into harmalol; conditions: 15 mM Na+; CP buffer pH 6.8, 25 °C; single-site fit; text b28 prints 0.40±0.02×10^5, Table 3 agrees with 0.44×10^6; per base
# [10] = test system: poly(dA).poly(dT) (DNA, polymer) A/T; test: ITC, polynucleotide titrated into harmalol; conditions: 15 mM Na+; CP buffer pH 6.8, 25 °C; single-site fit; 20 µM harmalol; per base
# [11] = test system: poly(dG).poly(dC) (DNA, polymer) G/C; test: ITC, polynucleotide titrated into harmalol; conditions: 15 mM Na+; CP buffer pH 6.8, 25 °C; single-site fit; 20 µM harmalol; per base
# [12] = test system: poly(dG-dC).poly(dG-dC) (DNA, polymer) GC; test: absorbance titration, Scatchard, McGhee-von Hippel; conditions: Na+ (citrate-phosphate 15 mM); 15 mM CP buffer pH 6.8, 25 °C; non cooperative; DNA as nucleotide phosphate; per base
# [13] = test system: poly(dA-dT).poly(dA-dT) (DNA, polymer) AT; test: absorbance titration, Scatchard, McGhee-von Hippel; conditions: Na+ (citrate-phosphate 15 mM); 15 mM CP buffer pH 6.8, 25 °C; non cooperative; DNA as nucleotide phosphate; per base
# [14] = test system: poly(dA).poly(dT) (DNA, polymer) A/T; test: absorbance titration, Scatchard, McGhee-von Hippel; conditions: Na+ (citrate-phosphate 15 mM); 15 mM CP buffer pH 6.8, 25 °C; cooperative, intrinsic Ki 0.02±0.01 × 10^6, ω 14.0; DNA as nucleotide phosphate; per base
# [15] = test system: poly(dG).poly(dC) (DNA, polymer) G/C; test: absorbance titration, Scatchard, McGhee-von Hippel; conditions: Na+ (citrate-phosphate 15 mM); 15 mM CP buffer pH 6.8, 25 °C; cooperative, intrinsic Ki 0.002±0.001 × 10^6, ω 84; DNA as nucleotide phosphate; per base
# [16] = test system: poly(dG-dC).poly(dG-dC) (DNA, polymer) GC; test: fluorescence titration, Scatchard, McGhee-von Hippel; conditions: Na+ (citrate-phosphate 15 mM); 15 mM CP buffer pH 6.8, 25 °C; non cooperative; DNA as nucleotide phosphate; per base
# [17] = test system: poly(dA-dT).poly(dA-dT) (DNA, polymer) AT; test: as above; conditions: Na+ (citrate-phosphate 15 mM); 15 mM CP buffer pH 6.8, 25 °C; non cooperative; DNA as nucleotide phosphate; per base
# [18] = test system: poly(dA).poly(dT) (DNA, polymer) A/T; test: as above; conditions: Na+ (citrate-phosphate 15 mM); 15 mM CP buffer pH 6.8, 25 °C; cooperative, intrinsic constant, ω 20; DNA as nucleotide phosphate; per base
# [19] = test system: poly(dG).poly(dC) (DNA, polymer) G/C; test: as above; conditions: Na+ (citrate-phosphate 15 mM); 15 mM CP buffer pH 6.8, 25 °C; cooperative, intrinsic constant, ω 75; DNA as nucleotide phosphate; per base
smiles,measurement,setting,value
CC1=NCCc2c1[nH]c1cc(O)ccc21,ΔTm,[1],8 °C
same,ΔTm,[2],6 °C
same,ΔTm,[3],6 °C
same,Kapp,[4],13.10±0.07 × 10^5 M^-1
same,Kapp,[5],4.56±0.04 × 10^5 M^-1
same,Kapp,[6],3.39±0.02 × 10^5 M^-1
same,Kapp,[7],2.19±0.01 × 10^5 M^-1
same,Kb,[8],3.86±0.07 × 10^6 M^-1
same,Kb,[9],0.44±0.02 × 10^6 M^-1
same,Kb,[10],0.30±0.02 × 10^6 M^-1
same,Kb,[11],0.22±0.03 × 10^6 M^-1
same,Ki,[12],4.20±0.05 × 10^6 M^-1
same,Ki,[13],0.43±0.03 × 10^6 M^-1
same,Kiω,[14],0.28±0.01 × 10^6 M^-1
same,Kiω,[15],0.18±0.01 × 10^6 M^-1
same,Kf,[16],4.60±0.07 × 10^6 M^-1
same,Kf,[17],0.45±0.04 × 10^6 M^-1
same,Kf,[18],0.015±0.001 × 10^6 M^-1
same,Kf,[19],0.002±0.001 × 10^6 M^-1
